Results reported in ChEMBL document CHEMBL4417631, “Oral peptide inhibitors of interleukin-23 receptor and their use to treat inflammatory bowel diseases” (2017).
Where a SMILES comes first, the peptide text is derived from it.

Target: T1, Interleukin-23 receptor (Homo sapiens, UniProt Q5VWK5)
T1 sequence (Q5VWK5 whole entry): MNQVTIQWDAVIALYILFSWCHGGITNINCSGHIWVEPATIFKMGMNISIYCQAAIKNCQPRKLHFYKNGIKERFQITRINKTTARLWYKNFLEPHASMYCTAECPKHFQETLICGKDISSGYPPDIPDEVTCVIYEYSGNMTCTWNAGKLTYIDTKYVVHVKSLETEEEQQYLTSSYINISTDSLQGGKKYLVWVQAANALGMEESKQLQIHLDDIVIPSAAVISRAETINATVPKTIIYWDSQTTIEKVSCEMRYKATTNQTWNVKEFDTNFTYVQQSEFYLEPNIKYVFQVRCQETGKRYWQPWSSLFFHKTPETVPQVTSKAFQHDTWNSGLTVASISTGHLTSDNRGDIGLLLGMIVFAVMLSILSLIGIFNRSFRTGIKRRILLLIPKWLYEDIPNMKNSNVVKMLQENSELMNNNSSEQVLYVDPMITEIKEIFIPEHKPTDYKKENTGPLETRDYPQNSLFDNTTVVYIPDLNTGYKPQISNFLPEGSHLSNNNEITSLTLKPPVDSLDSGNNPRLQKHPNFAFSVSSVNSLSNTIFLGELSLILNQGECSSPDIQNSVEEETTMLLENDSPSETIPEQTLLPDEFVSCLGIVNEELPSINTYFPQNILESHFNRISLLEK
Test: Inhibition of interleukin-23 binding to human interleukin-23 receptor incubated for 2 hrs by competitive binding ELISA

Row | SMILES | IC50 [µM]
1 | CC(=O)N[C@@H](CS)C(=O)N[C@@H](CCCCN)C(=O)N[C@@H](CC(=O)O)C(=O)N[C@@H](Cc1c[nH]c2ccccc12)C(=O)N[C@H](C(=O)N[C@@H](CS)C(=O)N[C@@H](Cc1ccc(O)cc1)C(=O)N[C@@H](Cc1c[nH]c2ccccc12)C(=O)N[C@@H](Cc1cnc[nH]1)C(=O)N[C@H](C(=O)N[C@@H](Cc1ccccc1)C(=O)NCC(=O)O)[C@@H](C)O)C(C)C | > 1
2 | CC(=O)N[C@@H](CS)C(=O)N[C@@H](C)C(=O)N[C@@H](CC(=O)O)C(=O)N[C@@H](Cc1c[nH]c2ccccc12)C(=O)N[C@H](C(=O)N[C@@H](CS)C(=O)N[C@@H](Cc1ccc(O)cc1)C(=O)N[C@@H](Cc1c[nH]c2ccccc12)C(=O)N[C@@H](Cc1cnc[nH]1)C(=O)N[C@H](C(=O)N[C@@H](Cc1ccccc1)C(=O)N[C@@H](CC(=O)O)C(=O)N[C@@H](CCCCNC(=O)COCC(=O)NCCCC[C@H](NC(=O)[C@H](CC(=O)O)NC(=O)[C@H](Cc1ccccc1)NC(=O)[C@@H](NC(=O)[C@H](Cc1cnc[nH]1)NC(=O)[C@H](Cc1c[nH]c2ccccc12)NC(=O)[C@H](Cc1ccc(O)cc1)NC(=O)[C@H](CS)NC(=O)[C@@H](NC(=O)[C@H](Cc1c[nH]c2ccccc12)NC(=O)[C@H](CC(=O)O)NC(=O)[C@H](C)NC(=O)[C@H](CS)NC(C)=O)C(C)C)[C@@H](C)O)C(=O)O)C(=O)O)[C@@H](C)O)C(C)C | > 10
3 | CC(=O)N[C@H]1CCSC[C@@H](C(=O)N[C@@H](Cc2ccc(OCCN)cc2)C(=O)N[C@@H](Cc2ccc3ccccc3c2)C(=O)N[C@@](C)(CCCCN)C(=O)N[C@@H](CCC(=O)O)C(=O)N[C@@H](CC(N)=O)C(=O)NCC(N)=O)NC(=O)[C@H](CCC(N)=O)NC(=O)[C@H](CCCNCc2ccccc2)NC(=O)[C@H]([C@@H](C)O)NC(=O)[C@H](CCC(N)=O)NC1=O | > 3
4 | CC(=O)N[C@@H](CS)C(=O)N[C@@H](C)C(=O)N[C@@H](CC(=O)O)C(=O)N[C@@H](Cc1c[nH]c2ccccc12)C(=O)N[C@H](C(=O)N[C@@H](CS)C(=O)N[C@@H](Cc1ccc(O)cc1)C(=O)N[C@@H](Cc1c[nH]c2ccccc12)C(=O)N[C@@H](Cc1cnc[nH]1)C(=O)N[C@@H](CCC(=O)O)C(=O)N[C@@H](Cc1cnc[nH]1)C(=O)N[C@@H](CO)C(=O)N[C@@H](CCC(=O)O)C(=O)N[C@@H](CCCNC(=N)N)C(=O)N[C@H](C(=O)NCC(N)=O)C(C)C)C(C)C (Ac-CADWVCYWHEHSERVG-NH2) | 0.5 to 1
5 | CC(=O)N[C@H](CCCCN)C(=O)N[C@@H](CO)C(=O)N[C@@H](CS)C(=O)N[C@@H](C)C(=O)N[C@@H](CC(=O)O)C(=O)N[C@@H](Cc1c[nH]c2ccccc12)C(=O)N[C@H](C(=O)N[C@@H](CS)C(=O)N[C@@H](Cc1ccc(O)cc1)C(=O)N[C@@H](Cc1c[nH]c2ccccc12)C(=O)N[C@@H](Cc1cnc[nH]1)C(=O)N[C@H](C(=O)N[C@@H](Cc1ccccc1)C(=O)NCC(=O)O)[C@@H](C)O)C(C)C | > 1
6 | CC(C)[C@H](NC(=O)[C@H](Cc1c[nH]c2ccccc12)NC(=O)[C@H](CC(=O)O)NC(=O)[C@H](C)NC(=O)[C@@H](N)CS)C(=O)N[C@@H](CS)C(=O)N[C@@H](Cc1ccc(O)cc1)C(=O)N[C@@H](Cc1c[nH]c2ccccc12)C(=O)N[C@@H](Cc1cnc[nH]1)C(=O)N[C@H](C(=O)N[C@@H](Cc1ccccc1)C(=O)NCC(=O)N[C@@H](CCCCNC(=O)COCC(=O)NCCCC[C@H](NC(=O)CNC(=O)[C@H](Cc1ccccc1)NC(=O)[C@@H](NC(=O)[C@H](Cc1cnc[nH]1)NC(=O)[C@H](Cc1c[nH]c2ccccc12)NC(=O)[C@H](Cc1ccc(O)cc1)NC(=O)[C@H](CS)NC(=O)[C@@H](NC(=O)[C@H](Cc1c[nH]c2ccccc12)NC(=O)[C@H](CC(=O)O)NC(=O)[C@H](C)NC(=O)[C@@H](N)CS)C(C)C)[C@@H](C)O)C(=O)O)C(=O)O)[C@@H](C)O | 1 to 10
7 | COc1ccc(C[C@H](NC(=O)[C@@H](NC(=O)[C@H](CCC(N)=O)NC(=O)[C@H](Cc2c[nH]c3ccccc23)NC(=O)[C@@H](NC(=O)[C@H](CCC(N)=O)NC(=O)[C@@H](NC(C)=O)C(C)(C)S)[C@@H](C)O)C(C)(C)S)C(=O)N[C@@H](Cc2ccc3ccccc3c2)C(=O)N[C@@](C)(CCCCN)C(=O)N[C@@H](CCCCNC(CC(C)C)=C2C(=O)CC(C)(C)CC2=O)C(=O)N[C@@H](CC(N)=O)C(=O)NCC(N)=O)cc1 | 0.1 to 1
